# Key:
# [1] = tested on: human liver cancer HepG2 cell line; experiment: Indexes related to lipid metabolism in human liver cancer cells (commercial kits); type: cell-based; settings: HepG2, 24 h treatment, FIG. 2
# Procedure: (§1) In-vivo antineoplastic activity and activity of inhibiting abnormal lipid metabolism of tumors of the RAs are verified by establishing a nude mouse subcutaneously transplanted tumor model with liver cancer cells.
# An overnight human liver cancer HepG2 cell line is cultivated by a 10% FBS medium. Pancreatin is added for digestion to form a cell suspension, which is inoculated onto a 6-well plate according to an appropriate concentration. After 24 h, the RA-V or the RA-XII is added for treatment for 24 h. Digestion is conducted with the pancreatin. Centrifugation is conducted for 5 to 10 min at a room temperature and 2000 rpm, and cells are collected. The cells are resuspended once with pre-cooled 1×PBS (4° C.), centrifuged for 5 to 10 min at 2000 rpm, and washed. By adopting commercial kits, contents of total cholesterol and triglycerides in the cells are detected through a single reagent GPO-PAP method respectively, and contents of low-density lipoproteins and high-density lipoproteins in the cells are detected through a double-reagent direct method (the commercial kits are purchased from the Nanjing Jiancheng Bioengineering Institute, with article numbers of A111-1, A110-1, A113-1 and A112-1 respectively).
# [2] = Weights of nude mice in the in-vivo antineoplastic test; design: species or system BABL/c nude mice; settings: caudal vein dosing every other day, 21 days, FIG. 4
# Procedure: (§2) HepG2 is diluted into […] with a serum-free MEM. 100 μL of cell suspension is taken and inoculated to left armpits of BABL/c nude mice subcutaneously, and grows for 7 days to form a tumor-bearing mouse model. Inoculated and well-grown tumor-bearing mice are grouped at random, and dosed with the RA-XII once through caudal veins every other day. While dosing, sizes of tumors are measured with a vernier caliper (a tumor volume=a long diameter×a short diameter^2/2), and weights of the nude mice are recorded and counted. The used animals are killed after dosed for 21 days, and tumors are peeled and photographed.
# [3] = tested on: HepG2 subcutaneously transplanted tumors; experiment: In-vivo antineoplastic test, nude mouse subcutaneously transplanted tumor model; design: species or system BABL/c nude mice; settings: caudal vein dosing every other day, 21 days, FIG. 4
# Procedure: as §1, §2
# [4] = tested on: tissues of HepG2 subcutaneously transplanted tumors; experiment: Lipid droplets in tissues of subcutaneously transplanted tumors, Oil Red staining; type: in vivo, BABL/c nude mice; settings: tumor tissues from Embodiment 4, Oil Red staining of cryosections, FIG. 6
# Procedure: as §2
# Tissues of the tumors obtained in Embodiment 4 are taken and embedded by OCT and then rapidly cooled. Cryostat serial sectioning is conducted with a thickness being 20 μm. Drying is conducted for 30 min at a room temperature. Fixing is conducted with 4% paraformaldehyde for 30 min. Staining is conducted with an Oil Red working solution for about 30 min at the room temperature. Washing is conducted with PBS twice. Sections are sealed with a glycerin jelly. Overnight drying is conducted, and pictures are taken under a microscope.
# [5] = tested on: tissues of HepG2 subcutaneously transplanted tumors; experiment: Indexes related to lipid metabolism in tissues of subcutaneously transplanted tumors; type: in vivo, BABL/c nude mice; settings: tumor tissues from Embodiment 4, RIPA lysate, FIG. 5
# Procedure: as §2
# Tissues of the tumors obtained in Embodiment 4 are taken and lysed with an RIPA lysate. Then contents of cholesterol, triglycerides, low-density lipoproteins and high-density lipoproteins are detected by adopting commercial kits (specific methods are the same as Embodiment 2).
# [6] = tested on: human liver cancer HepG2 cell line; experiment: Lipid droplet formation in human liver cancer cells, Oil Red staining; type: cell-based; settings: HepG2, 24 h treatment, FIG. 3
# Procedure: as §1
# 0.5 g of pre-ground and pre-crushed dried Oil Red powder (purchased from Sigma Company) is weighed, and dissolved in a small amount of isopropanol. Then isopropanol is added to reach 100 ml. A solution is sealed in a brown bottle (or packaged with tin foil paper for avoiding light) for preservation at 4° C. as a storage solution, which may be preserved for a long time. When using, 6 ml of the solution is taken, and 4 ml of tri-distilled water is added to be evenly mixed. The mixed solution is filtered by qualitative filter paper into a working solution, which is used up within a few hours after diluted. An overnight human liver cancer HepG2 cell line is cultivated by a 10% FBS medium. Pancreatin is added for digestion to form a cell suspension, which is inoculated onto a 24-well plate according to an appropriate concentration. After 24 h, the RA-XII is added for treatment for 24 h. A cultivation solution is poured out carefully and slowly. Fixing is then conducted with 4% paraformaldehyde for 30 min. Staining is conducted with an Oil Red working solution for about 30 min at the room temperature. Washing is conducted with PBS twice. Pictures are taken under a microscope.
# [7] = tested on: human liver cancer HepG2 cell line; experiment: Growth inhibition of human liver cancer cells, SRB method; type: cell-based; settings: HepG2, 24 h treatment, FIG. 1
# Procedure: as §1
# Cell viability is determined by adopting an SRB method. An overnight human liver cancer HepG2 cell line (purchased from the Cell Bank of Committee on Type Culture Collection of Chinese Academy of Sciences) is cultivated by a 10% FBS medium. Pancreatin is added for digestion to form a cell suspension, which is inoculated onto a 96-well plate according to an appropriate concentration at 100 μl/well. Cultivation is conducted in a CO2 incubator for 24 h until cells adhere to walls completely. Different final concentrations of RA-XII are added, after acting for 24 h, 50 μl of a 4° C. pre-cooled TCA solution (30%, w/v) is added into each well for fixing of the cells, and a final concentration of the TCA solution is 10%. The 96-well plate is transferred into a 4° C. refrigerator for fixing for 1 h after still standing for 5 min. The 96-well plate is taken out, washed 5 times with deionized water, and aired at a room temperature. […] Optical densities are determined at 540 nm by adopting a microplate reader.
SMILES,high-density lipoproteins content in cells [1],low-density lipoproteins content in cells [1],total cholesterol content in cells [1],triglycerides content in cells [1],weights of the nude mice [2],growth speed of subcutaneously transplanted tumors (tumor volume) [3],number of lipid droplets in tumor tissues [4],high-density lipoproteins in tumor tissues [5],low-density lipoproteins in tumor tissues [5],total cholesterol in tumor tissues [5],triglycerides in tumor tissues [5],number of lipid droplets in tumor cells [6],"proliferation of tumor cells (cell viability, SRB) [7]"
COc1ccc(C[C@H]2C(=O)N[C@@H](C)C(=O)N(C)C3Cc4ccc(cc4)Oc4cc(ccc4O)C[C@@H](C(=O)N[C@H](C)C(=O)N[C@@H](C)C(=O)N2C)N(C)C3=O)cc1 [RA-V],no obvious influence,obviously inhibit expression,obviously inhibit expression,obviously inhibit expression,–,–,–,–,–,–,–,–,–
COc1ccc(C[C@H]2C(=O)N[C@@H](C)C(=O)N(C)C3Cc4ccc(cc4)Oc4cc(ccc4O[C@@H]4OC(CO)[C@@H](O)[C@H](O)C4O)C[C@@H](C(=O)N[C@H](C)C(=O)N[C@@H](C)C(=O)N2C)N(C)C3=O)cc1 (some centres unmarked) [RA-XII],no obvious influence,obviously inhibit expression,obviously inhibit expression,obviously inhibit expression,no obvious influence,obviously reduce a growth speed,obviously reduce the number of the lipid droplets,no obvious influence,obviously inhibit expression,obviously inhibit expression,obviously inhibit expression,obviously reduce the number of the lipid droplets,inhibits rapid proliferation of tumor cells

# Source: patent US20210171579A1, “INHIBITOR USING PLANT CYCLOPEPTIDE AS EFFECTIVE COMPONENT FOR LIPID METABOLIC ABNORMALITIES IN CANCER CELLS AND USES THEREOF” (CHINA PHARMACEUTICAL UNIVERSITY, priority 2017, published 2021)
